Data taken from publication PMC9513234, “Synthesis and Biological Evaluation of Termini-Modified and Cyclic Variants of the Connexin43 Inhibitor Peptide5” (Frontiers in Chemistry, 2022).

Legend:
[1] = tested on: gap junctions in hCMVEC cells; settings: 100 µM, mean ± SEM
Protocol: We next investigated the ability of peptide5 variants to inhibit gap junctional communication using a scrape loading assay. In this assay, the cells in culture are loaded with a dye (Lucifer Yellow dilithium salt (LY), M.W. 457.25 Da) of molecular size (<1 kDa) that is able to transit through the gap junctions and the degree of dye spread is then measured by counting the number of cells that contain LY (Supplementary Material, Method 4) ^1. Consistent with our previous study, peptide5 (1) and Cbx reduced the degree of dye spread following incubation with LY (56.16 ± 2.1%; p < 0.0001 and 16.2 ± 1.1%; p < 0.0001, respectively) compared to the untreated controls (Figure 12).
Human cerebral microvascular endothelial cells (hCMVEC) were purchased from Applied Biological Materials (ABM) Inc, Canada (cat # T0259) (O'Carroll et al., 2015). Cells were cultured in 1 μg/cm^2 collagen I (Gibco) coated T75 flasks from Corning (NY, USA). The growth media was M199 media (Gibco), supplemented with 10% FBS, 1 μg/mL hydrocortisone (Sigma), 3 μg/mL human FGF (Peprotech), 10 μg/mL human EGF (Peprotech), 10 μg/mL heparin (Sigma), 2 mM Glutamax (Gibco), and 80 μM butyryl cAMP (Sigma).
For experiments hCMVECs cells were plated M199 media at a density of 4 x 10^5 cells per well in a collagen coated (1 µg/cm^2) 12-well plate the day prior to the experiment to ensure a confluent monolayer of hCMVECs. On the day of the experiment cells were pre-incubated in carbenoxolone, (100 µM) Peptide5 (5–100 µM) or modified analogues (100 µM) or M199 as a negative control. Cells were washed three times with phosphate buffered saline (PBS) without Ca^2+ or Mg^2+ and incubated in 0.05% Lucifer Yellow (LY) (Sigma), a fluorescent dye that is transferred through coupled gap junction channels (el-Fouly, Trosko, & Chang, 1987), and scrape-wounded with a size 10 carbon steel surgical blade (Swann-Morton, England). Following a 5 minute incubation at 37 °C in 95% O2 and 5% CO2 without light, the 0.05% LY solution was removed. Cells were rinsed four times with HBSS containing Ca^2+ ^+, and then fixed in 4% paraformaldehyde (PFA) in PBS at pH 7.4 for 10 minutes at room temperature. Cells were then washed 3 times in PBS to remove PFA before fluorescent imaging. Fluorescent images were visualized using a Nikon TE2000E inverted fluorescent microscope (10x magnification, 0.3 numerical aperture), and captured using a Digital Sight CCD camera and Eclipse Net software (Nikon). Three images within each well from three independent experiments were taken for analysis, and the total number of cells showing dye uptake from those that had been loaded were counted manually by masked observers. Each peptide was tested in at least an n of 2 separate experiments.

[2] = Human serum stability assay (RP-HPLC)
Protocol: We then evaluated the N-methylated variants 7 and 8, D amino acid variants 9 and 10, and the two carbo cyclic peptides 39 and 42. Each peptide was incubated with 25% aq. human serum at 37°C, and 6 aliquots were extracted within 48 h. The stability of each peptide upon exposure to human serum was then analyzed via analytical RP HPLC, and the amount of peptide still present at each time point was recorded relative to t = 0 h.
Whole blood was collected from a healthy volunteer and stored in a covered test tube and was allowed to clot by leaving it undisturbed at r.t. for ca. 1 h. The clot was removed by centrifugation at 1,000-2,000 x g for 10 min and the resulting supernatant was designated as the serum. The serum was collected and stored in 0.5 mL aliquots, whereby the samples were stored at - 20 °C.
200 µM concentration of peptide was incubated in 25% aq. human serum (1.7 mL) and left to shake at 37 °C. Aliquots of human serum-peptide mixture (270 µL) were taken at given times (0 h, 1 h, 4 h, 8 h, 24 h, and 48 h) and threefold excess of acetonitrile (810 µL) was added to the aliquot and left for 1 h at 0 °C. The samples underwent centrifugation (14,500 rpm) for 30 min at r.t. and the supernatant was subsequently collected. Upon evaporation of the solvents, the resulting dry, pale-yellow residue was dissolved in water containing 0.1 % TFA.
The dissolved solution was analysed via analytical RP HPLC and the quantity of the peptide was expressed as a percentage relative to the peptide peak area obtained at time zero (i.e. 100% peptide amount at t = 0 h). A scatterplot graph representing percentage of peptide versus time was generated.

hemichannels = tested on: hemichannels; design: method as in O’Carroll et al., 2008; settings: in vitro; ref O’Carroll et al., 2008; cited from earlier work
gap junctions = settings: in vitro, higher concentrations; ref O’Carroll et al., 2008; cited from earlier work
[3] = cited from earlier work
[4] = design: method as in Kumagai et al., 1991; settings: ref Kumagai et al., 1991; cited from earlier work

| Substance | LY dye spread (number of LY-positive cells) as percentage of untreated control [1] [%] | time to complete degradation in human serum [2] [h] | concentration selectively inhibiting hemichannels (hemichannels) [µM] | concentration inhibiting both gap junctions and hemichannels (gap junctions) [µM] | half-life in rat serum [3] [min] | increase in binding compared to its linear form [4] [fold] |
| --- | --- | --- | --- | --- | --- | --- |
| H-VDCFLSRPTEKT-OH [peptide5, H2N-VDCFLSRPTEKT-CO2H] | 56.16 ± 2.1 | ≤ 10 | ≥ 5 | 500 | 5 | – |
| cilengitide | – | – | – | – | – | 10 |
